# Columns and labels:
# [1] = test system: acute inflammation of mice ear caused by dimethylbenzene; assay: Mice ear inflammation caused by dimethylbenzene; format: in vivo, Kunming mice; conditions: for Difference (mg) between left and right ear: 4 days, 2 h after dimethylbenzene, n=10
# Description: Experimental animal: Kunming mice, body weight 18-22 g.
# Method of administration: intraperitoneal injection. The doses of wedelolactone were 12.5 mg/kg and 25 mg/kg, respectively; the negative control used 0.5% CMC; the positive control used ibuprofen (25 mg/kg).
# Method of experiment: The animals were divided randomly into 4 groups based on their body weights, 10 mice each group. The mice were administered with the test compound for 4 continuous days. On Day 4, both sides of the right ears of the mice were daubed evenly with 50 μl dimethylbenzene 2 hours after the administration. The left ears were not treated. The mice were left for 2 hours and then sacrificed by cervical dislocation. The ear specimens were obtained by punching both ears with a 8 mm hole-puncher. The specimens were weighed and the differences between the left and the right ears were used to evaluate the effect of the compound on the inflammation.
# [2] = test system: adjuvant-induced arthritis of rats; assay: Adjuvant-induced arthritis of rats; format: in vivo, Male Wistar rats; conditions: for Left front paw thickness, Day 5 / Right front paw thickness, Day 5 / Right hind paw thickness, Day 5 / Right hind paw volume, Day 5 / Left hind paw thickness, Day 5 / Left hind paw volume, Day 5: day 5 after administration; for Left hind paw thickness, Day 5 / Left hind paw volume, Day 5 / Left hind paw thickness, Day 10 / Left hind paw volume, Day 10 / Left hind paw thickness, Day 15 / Left hind paw volume, Day 15 / Left hind paw thickness, Day 19 / Left hind paw volume, Day 19: adjuvant-injected paw; for Left front paw thickness, Day 10 / Right front paw thickness, Day 10 / Right hind paw thickness, Day 10 / Right hind paw volume, Day 10 / Left hind paw thickness, Day 10 / Left hind paw volume, Day 10: day 10 after administration; for Left front paw thickness, Day 15 / Right front paw thickness, Day 15 / Right hind paw thickness, Day 15 / Right hind paw volume, Day 15 / Left hind paw thickness, Day 15 / Left hind paw volume, Day 15: day 15 after administration; for Left front paw thickness, Day 19 / Right front paw thickness, Day 19 / Right hind paw thickness, Day 19 / Right hind paw volume, Day 19 / Left hind paw thickness, Day 19 / Left hind paw volume, Day 19: day 19 after administration
# Description: Experimental animal: Male Wistar rats. Body weights were about 150 g.
# Method of administration: intraperitoneal injection. The dose of wedelolactone was 0.25 mg/kg or 12.5 mg/kg, prepared in 0.5% CMC. The dose of methotrexate (MTX) is 0.2 mg/kg.
# Method of experiment: The animals were divided randomly into 4 groups based on their body weights. They were adapted for 3 days before experiments. The left hind planta of the rats were injected subcutaneously with 0.1 ml CFA emulsion to induce inflammation. On the Day 10, after the administration of the adjuvant, the rats were injected intraperitoneally with 5 ml/kg test compound wedelolactone for 19 continuous days. On and after the day of administration of the adjuvant, the change of thickness of the four rat paws was measured daily using a vernier caliper, and the volume of the back paw were measured using a Plethysmometer. The data from day 5, 10, 15, and 19 after administration were used for statistic analyses.
# [3] = test system: collagen-induced rat arthritis; assay: Collagen-induced rat arthritis (joint surface temperature, inflammation score); format: in vivo, Male Wistar rats; conditions: for inflammation score, Day 10 / inflammation score, Day 20 / inflammation score, Day 30: highest total score 16 points; for Joint surface temperature difference (° C.), Day 10: day 10 after first immunization; for Joint surface temperature difference (° C.), Day 20: day 20 after first immunization; for Joint surface temperature difference (° C.), Day 30: day 30 after first immunization
# Description: (§1) Experimental animal: Male Wistar rats. Body weights were about 120 g.
# (§2) Administration method: intraperitoneal injection. The dose of wedelolactone is 6 or 12 mg/kg. Negative control used 0.5% CMC.
# Experimental methods: 1). Preparation of type-II collagen. The fresh calf cartilages were ground at 4° C., immersed and washed with Tris-HCL2. The left residue was digested with pepsin. The supernatant was collected and salted out, followed by chromatography with DE-52 column to obtain type-II collagen. The collagen were dissolved in glacial acetic acid and mixed with Freund's adjuvant by grounding. Each of the animals, except the controls, was subcutaneously injected with a total of 2.5 mg/kg collagen at multiple sites of the tail root and back neck. 7 days thereafter, the animals were boostered by subcutaneous administration with 1.0 mg/kg collagen in the tail root and back neck. The immunized animals were divided randomly into 4 groups based on their body weight, 10 mice in each group. The four groups were modeling blank group, modeling control group, low dose wedelolactone group, and high dose wedelolactone group. The daily administration started at day 10 after the first immunization for 3 weeks continuously. The effects of the drug on the rat rheumatoid arthritis and the delayed-hypersensitivity were recorded. Starting from day 10 after the first immunization, the following data were recorded every 10 days: A) arthritis surface temperature (the surface temperature of both hind leg joints were measured by using a digital temperature recorder, and the temperature differences before and after the immunization was calculated). B) arthritis score (arthritis was scored following the method described in the literature. 1 point: inflammation in one area of paws or planta; 2 points: inflammation in more than two areas of paws or planta; 3 points: mild inflammation in the whole legs; 4 points: severe inflammation causing joint rigidity, deformation and dysfunction. The highest score for each paw is 4 points. The highest total score for each rat is 16 points. C) Delayed-hypersensitivity measurement. At day 24, 10 μl type II collagen containing solution was injected subcutaneously in the back of the right ear of each rat. The thickness of the ear before and 48 hr after the injection was measured.
# [4] = test system: delayed hypersensitivity of the collagen II-induced arthritic rats; assay: Delayed hypersensitivity of collagen II-induced arthritic rats; format: in vivo, Male Wistar rats; conditions: 48 hr after type II collagen injection
# Description: as §1, §2
# Experimental methods: 1). Preparation of type-II collagen. The fresh calf cartilages were ground at 4° C., immersed and washed with Tris-HCL2. The left residue was digested with pepsin. The supernatant was collected and salted out, followed by chromatography with DE-52 column to obtain type-II collagen. The collagen were dissolved in glacial acetic acid and mixed with Freund's adjuvant by grounding. Each of the animals, except the controls, was subcutaneously injected with a total of 2.5 mg/kg collagen at multiple sites of the tail root and back neck. […] The effects of the drug on the rat rheumatoid arthritis and the delayed-hypersensitivity were recorded. Starting from day 10 after the first immunization, the following data were recorded every 10 days: A) arthritis surface temperature (the surface temperature of both hind leg joints were measured by using a digital temperature recorder, and the temperature differences before and after the immunization was calculated). B) arthritis score (arthritis was scored following the method described in the literature. […] The thickness of the ear before and 48 hr after the injection was measured.
smiles,measurement,setting,value
COc1cc(O)c2c(c1)oc(=O)c1c3cc(O)c(O)cc3oc21 [wedelolactone],Difference (mg) between left and right ear,[1]; 12.5 mg/kg i.p.,11.3 ± 3.6 mg
same,Difference (mg) between left and right ear,[1]; 25 mg/kg i.p.,10.9 ± 4.6 mg
same,Inhibition of mice ear inflammation caused by dimethylbenzene,[1]; 12.5 and 25 mg/kg i.p.,could inhibit the inflammation of the mice ear caused by dimethylbenzene
same,Primary inflammation of the left foot and secondary inflammation of the right foot (FIG. 4),[2]; 0.25 mg/kg,prone to be alleviated
same,"Left front paw thickness, Day 5",[2]; 0.25 mg/kg i.p.,4.20 ± 0.11 mm
same,"Right front paw thickness, Day 5",[2]; 0.25 mg/kg i.p.,4.13 ± 0.15 mm
same,"Right hind paw thickness, Day 5",[2]; 0.25 mg/kg i.p.,5.05 ± 0.24 mm
same,"Right hind paw volume, Day 5",[2]; 0.25 mg/kg i.p.,1.18 ± 0.05 mL
same,"Left hind paw thickness, Day 5",[2]; 0.25 mg/kg i.p.,7.10 ± 0.83 mm
same,"Left hind paw volume, Day 5",[2]; 0.25 mg/kg i.p.,1.85 ± 0.24 mL
same,"Left front paw thickness, Day 10",[2]; 0.25 mg/kg i.p.,4.71 ± 0.24 mm
same,"Right front paw thickness, Day 10",[2]; 0.25 mg/kg i.p.,4.66 ± 0.09 mm
same,"Right hind paw thickness, Day 10",[2]; 0.25 mg/kg i.p.,5.28 ± 0.38 mm
same,"Right hind paw volume, Day 10",[2]; 0.25 mg/kg i.p.,1.16 ± 0.08 mL
same,"Left hind paw thickness, Day 10",[2]; 0.25 mg/kg i.p.,8.18 ± 1.22 mm
same,"Left hind paw volume, Day 10",[2]; 0.25 mg/kg i.p.,2.38 ± 0.30 mL
same,"Left front paw thickness, Day 15",[2]; 0.25 mg/kg i.p.,4.61 ± 0.10 mm
same,"Right front paw thickness, Day 15",[2]; 0.25 mg/kg i.p.,4.54 ± 0.15 mm
same,"Right hind paw thickness, Day 15",[2]; 0.25 mg/kg i.p.,5.15 ± 0.35 mm
same,"Right hind paw volume, Day 15",[2]; 0.25 mg/kg i.p.,1.29 ± 0.13 mL
same,"Left hind paw thickness, Day 15",[2]; 0.25 mg/kg i.p.,8.51 ± 0.91 mm
same,"Left hind paw volume, Day 15",[2]; 0.25 mg/kg i.p.,2.63 ± 0.37 mL
same,"Left front paw thickness, Day 19",[2]; 0.25 mg/kg i.p.,4.64 ± 0.17 mm
same,"Right front paw thickness, Day 19",[2]; 0.25 mg/kg i.p.,4.59 ± 0.15 mm
same,"Right hind paw thickness, Day 19",[2]; 0.25 mg/kg i.p.,5.23 ± 0.23 mm
same,"Right hind paw volume, Day 19",[2]; 0.25 mg/kg i.p.,1.36 ± 0.12 mL
same,"Left hind paw thickness, Day 19",[2]; 0.25 mg/kg i.p.,8.49 ± 1.06 mm
same,"Left hind paw volume, Day 19",[2]; 0.25 mg/kg i.p.,2.61 ± 0.42 mL
same,Primary inflammation of the left foot and secondary inflammation of the right foot (FIG. 3),[2]; 12.5 mg/kg,alleviated
same,"Left front paw thickness, Day 5",[2]; 12.5 mg/kg i.p.,4.11 ± 0.11 mm
same,"Right front paw thickness, Day 5",[2]; 12.5 mg/kg i.p.,4.01 ± 0.17 mm
same,"Right hind paw thickness, Day 5",[2]; 12.5 mg/kg i.p.,4.95 ± 0.27 mm
same,"Right hind paw volume, Day 5",[2]; 12.5 mg/kg i.p.,1.10 ± 0.10 mL
same,"Left hind paw thickness, Day 5",[2]; 12.5 mg/kg i.p.,7.13 ± 0.96 mm
same,"Left hind paw volume, Day 5",[2]; 12.5 mg/kg i.p.,1.64 ± 0.31 mL
same,"Left front paw thickness, Day 10",[2]; 12.5 mg/kg i.p.,4.03 ± 0.13 mm
same,"Right front paw thickness, Day 10",[2]; 12.5 mg/kg i.p.,3.95 ± 0.12 mm
same,"Right hind paw thickness, Day 10",[2]; 12.5 mg/kg i.p.,5.05 ± 0.25 mm
same,"Right hind paw volume, Day 10",[2]; 12.5 mg/kg i.p.,1.03 ± 0.10 mL
same,"Left hind paw thickness, Day 10",[2]; 12.5 mg/kg i.p.,8.09 ± 1.05 mm
same,"Left hind paw volume, Day 10",[2]; 12.5 mg/kg i.p.,2.14 ± 0.45 mL
same,"Left front paw thickness, Day 15",[2]; 12.5 mg/kg i.p.,4.11 ± 0.16 mm
same,"Right front paw thickness, Day 15",[2]; 12.5 mg/kg i.p.,4.11 ± 0.16 mm
same,"Right hind paw thickness, Day 15",[2]; 12.5 mg/kg i.p.,5.20 ± 0.23 mm
same,"Right hind paw volume, Day 15",[2]; 12.5 mg/kg i.p.,1.24 ± 0.16 mL
same,"Left hind paw thickness, Day 15",[2]; 12.5 mg/kg i.p.,8.44 ± 1.63 mm
same,"Left hind paw volume, Day 15",[2]; 12.5 mg/kg i.p.,2.42 ± 0.62 mL
same,"Left front paw thickness, Day 19",[2]; 12.5 mg/kg i.p.,4.04 ± 0.14 mm
same,"Right front paw thickness, Day 19",[2]; 12.5 mg/kg i.p.,4.04 ± 0.07 mm
same,"Right hind paw thickness, Day 19",[2]; 12.5 mg/kg i.p.,4.98 ± 0.10 mm
same,"Right hind paw volume, Day 19",[2]; 12.5 mg/kg i.p.,1.19 ± 0.08 mL
same,"Left hind paw thickness, Day 19",[2]; 12.5 mg/kg i.p.,8.53 ± 1.33 mm
same,"Left hind paw volume, Day 19",[2]; 12.5 mg/kg i.p.,2.46 ± 0.75 mL
same,Inhibition of rat adjuvant arthritis,"[2]; 0.25 or 12.5 mg/kg i.p., 19 days",could effectively inhibit rat adjuvant arthritis
same,"inflammation score, Day 10",[3]; 6 mg/kg i.p.,4.00 ± 2.02
same,"Joint surface temperature difference (° C.), Day 10",[3]; 6 mg/kg i.p.,1.42 ± 0.74 °C
same,"inflammation score, Day 20",[3]; 6 mg/kg i.p.,3.10 ± 1.45
same,"Joint surface temperature difference (° C.), Day 20",[3]; 6 mg/kg i.p.,0.83 ± 0.44 °C
same,"inflammation score, Day 30",[3]; 6 mg/kg i.p.,2.7 ± 1.35
same,"Joint surface temperature difference (° C.), Day 30",[3]; 6 mg/kg i.p.,0.72 ± 0.40 °C
same,"inflammation score, Day 10",[3]; 12 mg/kg i.p.,4.10 ± 2.08
same,"Joint surface temperature difference (° C.), Day 10",[3]; 12 mg/kg i.p.,1.36 ± 0.50 °C
same,"inflammation score, Day 20",[3]; 12 mg/kg i.p.,2.00 ± 1.41
same,"Joint surface temperature difference (° C.), Day 20",[3]; 12 mg/kg i.p.,0.73 ± 0.45 °C
same,"inflammation score, Day 30",[3]; 12 mg/kg i.p.,1.40 ± 1.02
same,"Joint surface temperature difference (° C.), Day 30",[3]; 12 mg/kg i.p.,0.48 ± 0.39 °C
same,Inhibition of collagen-induced rat arthritis,"[3]; 6 or 12 mg/kg i.p., 3 weeks",can effectively inhibit the collagen-induced rat arthritis
same,Increased thickness of the right ear (mm),[4]; 6 mg/kg i.p.,0.231 ± 0.113 mm
same,Increased thickness of the right ear (mm),[4]; 12 mg/kg i.p.,0.194 ± 0.115 mm

# Reference: US20070129426A1, “Therapeutic drugs for arthritis” (Shanghai Ambrosia Pharmaceutical Co., Ltd., priority 2003, published 2007)
